According to PMC8032624, “Prediction of dose-dependent in vivo acetylcholinesterase inhibition by profenofos in rats and humans using physiologically based kinetic (PBK) modeling-facilitated reverse dosimetry” (Archives of Toxicology, 2021):

Legend:
[1] = in vitro; type: in vitro ADME; settings: conversion of profenofos to BCP; for Km: pH 7.4
Method: Incubations of profenofos with rat and human liver microsomes, liver cytosol and plasma were performed to quantify in vitro rates of BCP formation. Conditions were optimized to be linear for metabolite formation with regard to incubation time and microsomal, cytosolic and plasma protein concentration (data not shown). The final incubations were carried out in 100 mM Tris HCl (pH 7.4, 37 °C) containing (final concentrations) 5 mM MgCl2, 2 mM CaCl2 [to stimulate PON1 activity (Carr et al. [2015])], 2 mM NADPH (cofactor to also include CYP-mediated metabolism), enzyme preparation (final concentration 2 mg/ml for human liver microsomes and cytosol and 4.4 mg/ml for human plasma; 0.5 mg/ml for rat microsomes and cytosol and 1.65 mg/ml for rat plasma) and profenofos (at final concentrations ranging from 1 to 100 μM, added from 100 times concentrated stock solutions in DMSO). Control incubations were performed in the absence of microsomes, cytosol or plasma. After 2 min pre-incubation, the reaction was initiated by adding the substrate and mixtures were incubated for 2 min in a 37 °C water bath. The total volume of the incubation mixtures was 200 μl. The reaction was terminated by the addition of 50 μl ice cold ACN and samples were kept on ice. The mixture was centrifuged at 14,000g for 20 min at 4 °C and the supernatant was analyzed using UPLC-UV.
All samples from incubations were analyzed using a Waters Acquity UPLC H class system that consisted of a quaternary solvent manager, a sample manager, and a photodiode array (PDA) detector, equipped with a Water Acquity UPLC® BEH C18 column (1.7 μm, 2.1 × 50 mm) and Waters Xbridge UPLC® BEH C18 pre-column (2.5 μM, 2.1 × 5 mm). The temperature of the column was kept at 40 °C and the auto sampler at 10 °C during the UPLC analysis. The mobile phases used for the analysis consisted of (A) 0.1% TFA in nanopure water and (B) 100% ACN. A gradient elution at a flow rate of 0.6 ml/min was applied for the analysis with the initial condition of 100% A:0% B (v/v), changing in a linear way to 0% A:100% B from 0 to 6 min, which was maintained for 30 s, and then changed back to the initial conditions in 30 s, which were maintained for 1 min. The injection volume for each sample was 3.5 μl.
Under these conditions, the retention times of profenofos and BCP were 4.76 and 3.37 min, respectively. The amounts of profenofos and BCP were quantified by integrating the peak areas at 237 nm using calibration curves that were prepared using commercially available standards.
Kinetic parameters including the apparent maximum velocity (Vmax) and the apparent Michaelis–Menten constant (Km) for BCP formation were obtained by fitting the data for the substrate concentration-dependent rate of conversion (expressed in nmol/min/mg protein) using GraphPad Prism 5, version 5.04 (San Diego, California, USA) to the standard Michaelis–Menten equation: V=Vmax∗S/(Km+S) in which the S represents the concentration of substrate, expressed in μM, V and Vmax the velocity and the maximum velocity of the reaction, respectively, expressed in nmol/min/mg protein, and Km the apparent Michaelis–Menten constant, expressed in μM. The kinetic parameter values for conversion of profenofos to BCP in the liver microsomes, liver cytosol and plasma were determined. To determine the catalytic efficiency, Vmax was divided by the Km.

[2] = Control incubations without microsomes, cytosol or plasma (spontaneous hydrolysis); type: physicochemical; settings: 100 mM Tris HCl pH 7.4, 37 °C, 2 min, no enzyme preparation
Method: Incubations of profenofos with rat and human liver microsomes, liver cytosol and plasma were performed to quantify in vitro rates of BCP formation. Conditions were optimized to be linear for metabolite formation with regard to incubation time and microsomal, cytosolic and plasma protein concentration (data not shown). […] The mixture was centrifuged at 14,000g for 20 min at 4 °C and the supernatant was analyzed using UPLC-UV.
The conversion of profenofos to BCP was measured in incubations with both rat and human liver microsomes, cytosol and plasma. […] In control incubations, small amounts (max 0.04% of the amount of profenofos added) of BCP were detected, indicating some spontaneous hydrolysis of profenofos in the aqueous environment, which has also been observed in previous studies (Aly and Badawy [1982]). The BCP formation data for microsomes, cytosol and plasma were, therefore, corrected for BCP levels detected in control incubations.

[3] = system: AChE of human erythrocytes; settings: freshly obtained human erythrocytes; ref Das and Jamil [2006]; read-out: IC50 AChE inhibition; cited from earlier work
[4] = molecular target: AChE (Homo sapiens, UniProt P22303); assay: In vitro inhibition of human recombinant AChE (Ellman); type: biochemical; set-up: purchased Sigma-Aldrich; settings: 15-min incubation at 37 °C
AChE, sequence (P22303 32-614): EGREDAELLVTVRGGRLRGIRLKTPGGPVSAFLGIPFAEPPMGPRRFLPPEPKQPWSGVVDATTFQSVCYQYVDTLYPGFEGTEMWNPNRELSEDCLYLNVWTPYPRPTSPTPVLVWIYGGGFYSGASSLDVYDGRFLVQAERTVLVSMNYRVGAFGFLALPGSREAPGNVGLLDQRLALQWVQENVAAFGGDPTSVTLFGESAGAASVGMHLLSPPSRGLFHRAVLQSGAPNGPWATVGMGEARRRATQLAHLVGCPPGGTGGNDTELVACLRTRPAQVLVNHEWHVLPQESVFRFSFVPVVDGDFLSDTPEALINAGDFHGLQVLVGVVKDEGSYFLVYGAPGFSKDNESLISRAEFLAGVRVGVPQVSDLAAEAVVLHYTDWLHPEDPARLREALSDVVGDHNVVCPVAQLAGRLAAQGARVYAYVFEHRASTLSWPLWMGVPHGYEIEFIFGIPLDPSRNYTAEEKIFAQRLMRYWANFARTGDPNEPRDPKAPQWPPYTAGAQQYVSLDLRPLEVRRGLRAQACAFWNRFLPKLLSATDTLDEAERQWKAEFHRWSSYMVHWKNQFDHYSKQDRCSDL
Method: To perform reverse dosimetry of in vitro AChE inhibition by profenofos, first the in vitro AChE activity in the absence or presence of increasing concentrations of profenofos was determined. For humans, commercially available recombinant AChE was used. For rats, no commercially available recombinant AChE was available, so rat AChE was obtained from rat blood as described below.
AChE inhibition was determined following the protocol of Ellman et al. ([1961]) as modified by Chambers and Chambers ([1989]). The concentration of acetylthiocholine and recombinant AChE were optimized to be linear for metabolite formation (data not shown). Human recombinant AChE was dissolved in 0.1 M sodium phosphate (pH 7.4) containing 1 mg/ml BSA (which was present to stabilize human recombinant AChE (Rosenfeld and Sultatos [2006])) to reach an enzyme concentration of 200 U/ml. Subsequently, the AChE enzyme solution was further diluted with 0.1 M sodium phosphate (pH 7.4) containing 1 mg/ml BSA to a working concentration of 1 U/ml. […] Subsequently, the time-dependent increase in absorbance due to formation of chromophore (DTNB + thiocholine) was measured at 37 °C using a wavelength of 412 nm during a period of 10 min, using a spectrophotometer (SpectraMax, Molecular Devices, UK).
AChE activity was expressed as enzyme activity (percent of control). […]

Structure (SMILES): CCCSP(=O)(OCC)Oc1ccc(Br)cc1Cl (stereo not drawn) [profenofos, O-(4-bromo-2-chlorophenyl) O-ethyl S-propyl phosphorothioate]
- Vmax ([1]; rat liver cytosol): 0.95 nmol/min/mg cytosolic protein
- Vmax ([1]; rat liver microsomes): 8.9 nmol/min/mg microsomal protein
- Vmax ([1]; rat plasma): 0.68 nmol/min/mg plasma protein
- Km ([1]; rat liver cytosol): 0.34 µM
- Km ([1]; rat liver microsomes): 8.1 µM
- Km ([1]; rat plasma): 3.6 µM
- BCP detected in control incubations (spontaneous hydrolysis) [2]: ≤ 0.04 % of the amount of profenofos added
- IC50 [3]: 350 nM
- IC50 [4]: 302 nM
